Results from patent publication US12421212B2, “Substituted benzenecarboxamides as IL-17A modulators” (DiCE Alpha, Inc., priority 2019, dated 2025).

Target: T1, IL-17A/A (Homo sapiens, UniProt Q16552)
T1 construct: purchased Genscript Z03228
T1 sequence (Q16552 24-155): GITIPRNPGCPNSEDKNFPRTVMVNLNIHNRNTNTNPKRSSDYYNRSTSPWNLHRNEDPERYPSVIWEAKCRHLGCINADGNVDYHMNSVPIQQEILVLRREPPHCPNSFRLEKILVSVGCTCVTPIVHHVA
Assay: IL-17A/A HEK-Blue Cell Assay
Type: cell-based
Conditions: HEK-Blue IL-17A reporter cell line, SEAP readout at A630, 20 hours incubation with IL-17A/A, top concentration 10 uM, 1 uM or 0.3 uM; for IC50: read-out: IL-17A/A inhibition (pIC50) (converted)
Method: The HEK-Blue IL-17A reporter cell line (Fisher #NC1408637) was used for cell-based IL-17A/A inhibition assays. Cells were grown and prepared for assays according to the manufacturer's instructions. This cell line consists of HEK 293 cells that were designed to expressed IL-17RA, IL-17RC, and the ActI adapter molecule, the combination of which, when stimulated by IL-17A/A activates a NFκB promoter and drives expression of a recombinant Secreted Alkaline Phosphatase (SEAP) geneprotein. Media from the cells is then added to a development reagent (Quanti-Blue Substrate, Fisher #NC9711613), and read at A630.
Compounds were titrated in DMSO, with a top final compound concentration of 10 uM, 1 uM, or 0.3 uM, and added to the cells immediately before adding IL-17A/A (Genscript #Z03228). The cells, compound, and IL-17A/A were then incubated for 20 hours before media was removed for SEAP analysis. The resulting inhibition curve was then analyzed using Graphpad Prism 7.0, and IC50 values were determined using a 4-parameter nonlinear fit. DMSO was added to a universal final concentration of 0.1% to optimize background.

| IC50 [nM] | Compound | IL-17A/A inhibition (pIC50) |
| --- | --- | --- |
| 100 to 10000 | CCn1nccc1C(=O)N[C@H](C(=O)Nc1ccc([C@H](C)[C@@H](NC(=O)c2ccc(C)s2)C(=O)N2CCN(C)CC2)cc1F)C1CCCCC1 [Compound 635] | – |
| < 10 | CCC(=O)N[C@@H](C(=O)N1CCN(C)[C@@H](C)C1)[C@@H](C)c1ccc(NC(=O)[C@@H](NC(=O)c2ccnn2CC)[C@H]2CC[C@H](C)CC2)c(F)c1 [Compound 435] | – |
| < 10 | CCC(=O)N[C@@H](C(=O)N1CCN(C)CC1)[C@@H](C)c1ccc(NC(=O)C(NC(=O)c2ccnn2CC)C2CCc3cc(F)ccc32)c(F)c1 (single isomer, unassigned) [Compound 568] | – |
| < 10 | CCC(=O)N[C@@H](C(=O)N1CCN(C)[C@H](C)C1)[C@@H](C)c1ccc(NC(=O)[C@@H](NC(=O)c2ccnn2CC)[C@H]2CC[C@H](C)CC2)c(F)c1 [Compound 436] | – |
| 10 to 100 | CCn1nccc1C(=O)N[C@H](C(=O)Nc1ccc([C@H](C)[C@@H](NC(=O)COC)C(=O)N2CCN(C)CC2)cc1F)[C@H]1CC[C@H](C)CC1 [Compound 478] | – |
| 10 to 100 | CCc1nonc1C(=O)N[C@H](C(=O)Nc1ccc([C@H](C)[C@@H](NC(=O)[C@@H]2CCCO2)C(=O)N2CCN(C)CC2)cc1F)[C@H]1CC[C@H](C)CC1 [Compound 498] | – |
| 10 to 100 | CCC(=O)N[C@@H](C(=O)N1CCC(CC(=O)OC(C)(C)C)CC1)[C@@H](C)c1ccc(NC(=O)[C@@H](NC(=O)c2ccnn2CC)[C@H]2CC[C@H](C)CC2)c(F)c1 [Compound 421] | – |
| 10 to 100 | CCn1nccc1C(=O)N[C@H](C(=O)Nc1ccc([C@H](C)[C@@H](NC(=O)c2cnns2)C(=O)N2CCN(C)C3(CC3)C2)cc1F)[C@H]1CC[C@H](C)CC1 [Compound 439] | – |
| 100 to 10000 | CCn1nccc1C(=O)N[C@H](C(=O)Nc1ccc([C@H](C)[C@@H](NC(=O)c2ccsn2)C(=O)N2CCN(C)CC2)cc1F)C1CCCCC1 [Compound 685] | – |
| < 10 | CCc1nonc1C(=O)N[C@H](C(=O)Nc1ccc([C@H](C)C(NC(=O)C(C)F)C(=O)N2CCN(C)[C@H](C)C2)cc1F)[C@H]1CC[C@H](C)CC1 (single isomer, unassigned) [Compound 599] | – |
| < 10 | CCC(=O)N[C@@H](C(=O)N1CCN(C(C)(C)C)CC1)[C@@H](C)c1ccc(NC(=O)[C@@H](NC(=O)c2ccnn2CC)[C@H]2CC[C@H](C)CC2)c(F)c1 [Compound 420] | – |
| < 10 | CCn1nccc1C(=O)N[C@H](C(=O)Nc1ccc([C@H](C)[C@@H](NC(=O)C(C)(F)F)C(=O)N2CCN(C)[C@@H](C)C2)cc1F)[C@H]1CC[C@H](C)CC1 [Compound 479] | – |
| < 10 | COc1ccc(C(F)(F)C(=O)N[C@H](C(=O)Nc2ccc([C@H](C)[C@@H](NC(=O)c3cnns3)C(=O)N3CCN(C)CC3)cc2F)[C@H]2CC[C@H](C)CC2)cn1 [Compound 620] | – |
| 10 to 100 | CCn1nccc1C(=O)N[C@H](C(=O)Nc1ccc([C@H](C)[C@@H](NC(=O)c2conc2C2CCNCC2)C(=O)N2CCC(C)(O)CC2)cc1F)[C@H]1CC[C@H](C)CC1 [Compound 442] | – |
| 10 to 100 | CCc1nonc1C(=O)N[C@H](C(=O)Nc1ccc([C@H](C)[C@@H](NS(=O)(=O)CC)C(=O)N2CCN(C)CC2)cc1F)[C@H]1CC[C@H](C)CC1 [Compound 518] | – |
| 100 to 10000 | CCC(=O)N[C@H](Cc1ccc(NC(=O)[C@@H](NC(=O)c2cncn2CC)C2CCCCC2)c(F)c1)C(=O)N1CCN(C)CC1 [Compound 761] | – |
| < 10 | CCc1nonc1C(=O)N[C@H](C(=O)Nc1ccc([C@H](C)[C@@H](NC(=O)COC)C(=O)N2CCN(C)CC2)cc1F)[C@H]1CC[C@H](C)CC1 [Compound 499] | – |
| < 10 | CCC(=O)N[C@@H](C(=O)N1CCN(C)CC1)[C@@H](C)c1ccc(NC(=O)C(NC(=O)c2nonc2CC)C(CC)c2ccc(F)cc2)c(F)c1 (single isomer, unassigned) [Compound 558] | – |
| < 10 | CCC(=O)N[C@@H](C(=O)N1CCN(C)CC1)[C@@H](C)c1ccc(NC(=O)C(NC(=O)C(F)(F)c2ccc(OC)nc2)[C@@H](C)C2CCCCC2)c(F)c1 (stereo partly shown) [Compound 394] | – |
| < 10 | CCn1nccc1C(=O)N[C@H](C(=O)Nc1ccc([C@H](C)[C@@H](NC(=O)C(F)(F)CC)C(=O)N2CCN(C)[C@H](C)C2)cc1F)[C@H]1CC[C@H](C)CC1 [Compound 481] | – |

The next lines start with the compound.

| Compound | IC50 [nM] | IL-17A/A inhibition (pIC50) |
| --- | --- | --- |
| CCC(=O)N[C@H](Cc1ccc(NC(=O)[C@@H](NC(=O)c2c(CO)noc2C)C2CCCCC2)c(F)c1)C(=O)N1CCN(C)CC1 [Compound 777] | – | X1b (compounds were evaluated up to 10 uM and inhibited activity at 10 uM by less than 20%) |
| CCC(=O)N[C@@H](C(=O)N1CCN(C)CC1)[C@@H](C)c1ccc(NC(=O)[C@@H](NC(=O)c2nonc2CC)C2CCCCCC2)c(F)c1 [Compound 270] | < 10 | – |
| CCC(=O)N[C@H](Cc1ccc(NC(=O)[C@@H](NC(=O)c2ccc(S(=O)(=O)NC)s2)C2CCCCC2)c(F)c1)C(=O)N1CCN(C)CC1 [Compound 718] | – | X2a (compounds were evaluated up to 1 uM and did not inhibit activity by >80%, however they showed some activity at 1 uM (less than 80% and more than 20%)) |
| COc1ccc(C(F)(F)C(=O)N[C@H](C(=O)Nc2ccc([C@H](C)[C@@H](NC(=O)c3cnns3)C(=O)N3CCN(C)CC3)cc2F)C2CCCCCC2)cn1 [Compound 331] | < 10 | – |
| CCC(=O)N[C@@H](C(=O)N1CCN(C)CC1)[C@@H](C)c1ccc(NC(=O)[C@@H](NC(=O)C(F)(F)c2ccc(OC)nc2)C2CCCCC2)cc1 [Compound 221] | 10 to 100 | – |
| CCC(=O)N[C@H](Cc1ccc(NC(=O)[C@@H](NC(=O)Cc2cccc(O)c2)C2CCCCC2)c(F)c1)C(=O)N1CCN(C)CC1 [Compound 782] | – | X1b (compounds were evaluated up to 10 uM and inhibited activity at 10 uM by less than 20%) |
| CCC(=O)N[C@H](Cc1ccc(NC(=O)[C@@H](NC(=O)c2cnc(C(=O)NCC(F)F)[nH]2)C2CCCCC2)c(F)c1)C(=O)N1CCN(C)CC1 [Compound 783] | – | X1b (compounds were evaluated up to 10 uM and inhibited activity at 10 uM by less than 20%) |
| CC(C)n1nccc1C(=O)N[C@H](C(=O)Nc1ccc([C@H](C)[C@@H](NC(=O)c2cnns2)C(=O)N2CCN(C)CC2)cc1F)C1CCCCCC1 [Compound 332] | < 10 | – |
| CCC(=O)N[C@H](Cc1ccc(NC(=O)[C@@H](NC(=O)c2ccnn2CC)c2cccc3ccccc23)c(F)c1)C(=O)N1CCN(C)CC1 [Compound 698] | – | X2b (compounds were evaluated up to 1 uM and inhibited activity at 1 uM by less than 20%) |
| CCC(=O)N[C@H](Cc1ccc(NC(=O)[C@@H](NC(=O)C(F)(F)c2ccc(OC)nc2)C2CCCCC2)c(F)c1)C(=O)N1CCN(C)CC1 [Compound 203] | 100 to 10000 | – |
| CCC(=O)N[C@@H](C(=O)N1CCN(C)CC1)[C@@H](C)c1ccc(NC(=O)[C@@H](NC(=O)c2conc2C(C)C)[C@H]2CC[C@H](C)CC2)c(F)c1 [Compound 284] | < 10 | – |
| CCC(=O)N[C@@H](C(=O)N1CCN(C)CC1)[C@@H](C)c1ccc(NC(=O)C(NC(=O)c2ccnn2CC)C(C)c2ccccc2Cl)c(F)c1 (stereo partly shown) [Compound 520] | – | X1b (compounds were evaluated up to 10 uM and inhibited activity at 10 uM by less than 20%) |
| COc1cncc(C(F)(F)C(=O)N[C@H](C(=O)Nc2ccc(C[C@@H](NC(=O)c3cnns3)C(=O)N3CCN(C)CC3)cc2F)C2CCCCC2)c1 [Compound 324] | 10 to 100 | – |
| CCC(=O)N[C@@H](C(=O)N1CCN(C)CC1)[C@@H](C)c1ccc(NC(=O)[C@@H](NC(=O)c2cccn2CC2CC2)[C@H]2CC[C@H](C)CC2)c(F)c1 [Compound 283] | – | A (compounds having a pIC50 of greater than or equal 8 as A) |
| CCC(=O)N[C@H](Cc1ccc(NC(=O)[C@@H](NC(=O)c2ccnn2CCO)C2CCCCC2)c(F)c1)C(=O)N1CCN(C)CC1 [Compound 704] | – | X2a (compounds were evaluated up to 1 uM and did not inhibit activity by >80%, however they showed some activity at 1 uM (less than 80% and more than 20%)) |
| CCC(=O)N[C@@H](C(=O)N1CCN(C)CC1)[C@@H](C)c1ccc(NC(=O)[C@@H](NC(=O)c2conc2CC)C2CCCCCC2)c(F)c1 [Compound 257] | < 10 | – |
| CCn1nccc1C(=O)N[C@H](C(=O)Nc1ccc(C[C@@H](NC(=O)c2ccnn2C2CCN(C)CC2)C(=O)N2CCN(C)CC2)cc1F)C1CCCCC1 [Compound 321] | 10 to 100 | – |
| C[C@@H](c1ccc(NC(=O)[C@@H](NC(=O)c2cnon2)[C@H]2CC[C@H](C)CC2)c(F)c1)[C@@H](NC(=O)c1cnns1)C(=O)N1CCN(C)CC1 [Compound 548] | – | X2b (compounds were evaluated up to 1 uM and inhibited activity at 1 uM by less than 20%) |
| CCC(=O)N[C@@H](C(=O)N1CCN(C)CC1)[C@@H](C)c1ccc(NC(=O)[C@@H](NC(=O)c2csc3cncnc23)C2CCCCC2)c(F)c1 [Compound 754] | – | X2b (compounds were evaluated up to 1 uM and inhibited activity at 1 uM by less than 20%) |
| CCC(=O)N[C@H](Cc1ccc(NC(=O)[C@@H](NC(=O)C(F)(F)c2ccc(Cl)cc2)C2CCCCC2)c(F)c1)C(=O)N1CCN(C)CC1 [Compound 211] | 100 to 10000 | – |
